In US12091426B2, “Bifunctional degraders of hematopoietic progenitor kinase and therapeutic uses thereof” (Nurix Therapeutics, Inc., priority 2021, dated 2024):

Target: T1, HPK1 (Homo sapiens, UniProt Q92918)
T1 construct: A HiBiT tag was introduced by CRISPR on the N terminus of HPK1 in Jurkat cells; host or cells: Jurkat cells (ATCC TIB-152), monoclonal line with CRISPR knock-in of HiBiT at the endogenous HPK1 locus
Experiment: HPK1 Cellular HiBit Degradation Assay
Assay type: cell-based
Conditions: HiBiT HPK1 Jurkat cells, 24 hrs; for DC50: concentration at which 50% of HPK1 was remaining, read-out: DC50 Category; for Dmax: Jurkat, maximum degradation vs DMSO vehicle control, read-out: Dmax Category
Procedure, shortened: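 Jurkat cells with CRISPR knock-in N-terminal HiBiT-HPK1 were treated with CTMs (11-point, 3.16-fold, 10 uM to 0.1 nM final) for 24 hrs at 37° C. HiBiT lytic luminescence, with parental Jurkat as background and DMSO as 100%, gave % HPK1 remaining; four-parameter fit yielded DC50 and Dmax (100 minus lowest % remaining).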

T1 sequence (Q92918 whole entry): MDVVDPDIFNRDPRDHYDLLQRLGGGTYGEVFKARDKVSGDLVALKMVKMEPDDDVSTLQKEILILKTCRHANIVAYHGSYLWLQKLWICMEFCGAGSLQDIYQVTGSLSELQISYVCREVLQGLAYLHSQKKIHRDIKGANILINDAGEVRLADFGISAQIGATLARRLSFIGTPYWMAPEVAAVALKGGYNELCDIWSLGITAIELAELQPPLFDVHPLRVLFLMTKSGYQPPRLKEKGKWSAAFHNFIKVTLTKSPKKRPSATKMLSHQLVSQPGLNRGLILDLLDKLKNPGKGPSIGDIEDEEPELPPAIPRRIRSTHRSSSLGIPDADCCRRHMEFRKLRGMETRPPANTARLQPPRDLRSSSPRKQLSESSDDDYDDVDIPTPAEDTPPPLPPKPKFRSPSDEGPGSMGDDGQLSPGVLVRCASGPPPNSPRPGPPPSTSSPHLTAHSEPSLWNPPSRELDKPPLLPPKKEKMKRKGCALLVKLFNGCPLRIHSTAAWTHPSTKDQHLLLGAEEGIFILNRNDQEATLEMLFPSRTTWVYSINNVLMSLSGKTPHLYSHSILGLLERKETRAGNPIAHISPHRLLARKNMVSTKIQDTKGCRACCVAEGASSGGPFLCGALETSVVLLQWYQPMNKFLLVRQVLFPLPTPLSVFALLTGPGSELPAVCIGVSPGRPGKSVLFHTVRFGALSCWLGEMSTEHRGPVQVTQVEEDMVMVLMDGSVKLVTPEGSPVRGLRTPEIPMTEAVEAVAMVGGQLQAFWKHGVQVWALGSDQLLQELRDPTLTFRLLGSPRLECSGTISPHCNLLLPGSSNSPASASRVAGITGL

Row | DC50 [nM] | Dmax [%] | Compound
1 | 100 to 500 | 70 to 85 | CC(C)n1cnc2cc(-c3ccc4c(c3)N([C@H]3C[C@@H](N5CCCCC5)C3)C(=O)C43CCN(C(=O)[C@@H]4CCN(C(=O)[C@H]5CC[C@H](Nc6cc(C7CCC(=O)NC7=O)ccn6)CC5)C4)CC3)nc(Nc3ccccc3F)c21 (mixture of isomers) [Example 1, (3RS)-3-(2-{[(1R,4R)-4-[(3R)-3-[(6-{4-[(2-fluorophenyl)amino]-3-(propan-2-yl)-3H-imidazo[4,5-c]pyridin-6-yl}-2-oxo-1-[(1S,3S)-3-(piperidin-1-yl)cyclobutyl]-1,2-dihydrospiro[indole-3,4′-piperidin]-1′-yl)carbonyl]pyrrolidine-1-carbonyl]cyclohexyl]amino}pyridin-4-yl)piperidine-2,6-dione]
2 | 100 to 500 | 50 to 70 | CC(C)n1cnc2cc(-c3ccc4c(c3)N([C@H]3C[C@@H](N5CCCCC5)C3)C(=O)C43CCN(C(=O)C4(C)CCN(C(=O)C[C@H]5CCN(c6ccc(C7CCC(=O)NC7=O)cn6)C5)CC4)CC3)nc(NC3CC3)c21 (stereo partly drawn) [Example 154, 3-{6-[(3R)-3-{2-[4-({6-[4-(cyclopropylamino)-3-isopropylimidazo[4,5-c]pyridin-6-yl]-2-oxo-1-[(1S,3S)-3-(piperidin-1-yl)cyclobutyl]spiro[indole-3,4′-piperidin]-1′-yl}carbonyl)-4-methylpiperidin-1-yl]-2-oxoethyl}pyrrolidin-1-yl]pyridin-3-yl}piperidine-2,6-dione]
3 | < 100 | 70 to 85 | CC(C)n1cnc2cc(-c3ccc4c(c3)N([C@H]3C[C@@H](N5CCCCC5)C3)C(=O)C43CCN(C(=O)C4(C)CCN(C(=O)C5CCN(c6ccc(N7CCC(=O)NC7=O)cn6)CC5)CC4)CC3)nc(NC3CC3)c21 [Example 115, 1-(6-{4-[4-({6-[4-(cyclopropylamino)-3-(propan-2-yl)-3H-imidazo[4,5-c]pyridin-6-yl]-2-oxo-1-[(1S,3S)-3-(piperidin-1-yl)cyclobutyl]-1,2-dihydrospiro[indole-3,4′-piperidin]-1′-yl}carbonyl)-4-methylpiperidine-1-carbonyl]piperidin-1-yl}pyridin-3-yl)-1,3-diazinane-2,4-dione]
4 | < 100 | 50 to 70 | CC(C)n1cnc2cc(-c3ccc4c(c3)N([C@H]3C[C@@H](N5CCCCC5)C3)C(=O)C43CCN(C(=O)C4(C)CCN(C(=O)C5CCN(c6ccc(C7CCC(=O)NC7=O)nc6)CC5)CC4)CC3)nc(NC3CC3)c21 (mixture of isomers) [Example 118, (3RS)-3-(5-{4-[4-({6-[4-(cyclopropylamino)-3-(propan-2-yl)-3H-imidazo[4,5-c]pyridin-6-yl]-2-oxo-1-[(1S,3S)-3-(piperidin-1-yl)cyclobutyl]-1,2-dihydrospiro[indole-3,4′-piperidin]-1′-yl}carbonyl)-4-methylpiperidine-1-carbonyl]piperidin-1-yl}pyridin-2-yl)piperidine-2,6-dione]
5 | 100 to 500 | 50 to 70 | CC1C(C(=O)N2CCC3(CC2)C(=O)N([C@H]2C[C@@H](N4CCCCC4)C2)c2cc(-c4cc5ncn(C(C)C)c5c(NC5CC5)n4)ccc23)CCCN1C(=O)C1CCN(c2ccc(C3CCC(=O)NC3=O)cc2)CC1 (mixture of isomers) [Example 254, (3RS)-3-(4-{4-[3-({6-[4-(cyclopropylamino)-3-(propan-2-yl)-3H-imidazo[4,5-c]pyridin-6-yl]-2-oxo-1-[(1S,3S)-3-(piperidin-1-yl)cyclobutyl]-1,2-dihydrospiro[indole-3,4′-piperidin]-1′-yl}carbonyl)-2-methylpiperidine-1-carbonyl]piperidin-1-yl}phenyl)piperidine-2,6-dione]
6 | 500 to 1000 | 50 to 70 | CC(C)n1cnc2cc(-c3ccc4c(c3)N([C@H]3C[C@@H](N5CCCCC5)C3)C(=O)C43CCN(C(=O)C4CCN(C(=O)N5CCC(c6ccc(C7CCC(=O)NC7=O)cn6)CC5)CC4)CC3)nc(Nc3ccccc3F)c21 (mixture of isomers) [Example 97, (3RS)-3-[6-(1-{4-[(6-{4-[(2-fluorophenyl)amino]-3-(propan-2-yl)-3H-imidazo[4,5-c]pyridin-6-yl}-2-oxo-1-[(1S,3S)-3-(piperidin-1-yl)cyclobutyl]-1,2-dihydrospiro[indole-3,4′-piperidin]-1′-yl)carbonyl]piperidine-1-carbonyl}piperidin-4-yl)pyridin-3-yl]piperidine-2,6-dione]
7 | < 100 | > 85 | CC(C)n1cnc2cc(-c3ccc4c(c3)N([C@H]3C[C@@H](N5CCCCC5)C3)C(=O)C43CCN(C(=O)[C@@H]4CCN(C(=O)[C@H]5CC[C@H](Oc6ccc(N7CCC(=O)NC7=O)cn6)CC5)C4)CC3)nc(Nc3ccccc3F)c21 [Example 21, 1-(6-{[(1R,4R)-4-[(3R)-3-[(6-{4-[(2-fluorophenyl)amino]-3-(propan-2-yl)-3H-imidazo[4,5-c]pyridin-6-yl}-2-oxo-1-[(1S,3S)-3-(piperidin-1-yl)cyclobutyl]-1,2-dihydrospiro[indole-3,4′-piperidin]-1′-yl)carbonyl]pyrrolidine-1-carbonyl]cyclohexyl]oxy}pyridin-3-yl)-1,3-diazinane-2,4-dione]
8 | 100 to 500 | 50 to 70 | CC(C)n1cnc2cc(-c3ccc4c(c3)N([C@H]3C[C@@H](N5CCCCC5)C3)C(=O)C43CCN(C(=O)[C@H]4CCCN(C(=O)CC5CCN(c6ccc(C7CCC(=O)NC7=O)cn6)CC5)C4)CC3)nc(NC3CC3)c21 (mixture of isomers) [Example 231, (3RS)-3-[6-(4-{2-[(3S)-3-({6-[4-(cyclopropylamino)-3-(propan-2-yl)-3H-imidazo[4,5-c]pyridin-6-yl]-2-oxo-1-[(1S,3S)-3-(piperidin-1-yl)cyclobutyl]-1,2-dihydrospiro[indole-3,4′-piperidin]-1′-yl}carbonyl)piperidin-1-yl]-2-oxoethyl}piperidin-1-yl)pyridin-3-yl]piperidine-2,6-dione]
9 | 100 to 500 | 50 to 70 | CC(C)n1cnc2cc(-c3ccc4c(c3)N([C@H]3C[C@@H](N5CCC(F)CC5)C3)C(=O)C43CCN(C(=O)C4(C)CCN(C(=O)C5CCN(c6ccc(C7CCC(=O)NC7=O)cn6)CC5)CC4)CC3)nc(NC3CC3)c21 (mixture of isomers) [Example 208, (3RS)-3-(6-{4-[4-({6-[4-(cyclopropylamino)-3-(propan-2-yl)-3H-imidazo[4,5-c]pyridin-6-yl]-2-oxo-1-[(1S,3S)-3-(4-fluoropiperidin-1-yl)cyclobutyl]-1,2-dihydrospiro[indole-3,4′-piperidin]-1′-yl}carbonyl)-4-methylpiperidine-1-carbonyl]piperidin-1-yl}pyridin-3-yl)piperidine-2,6-dione]
10 | < 100 | 70 to 85 | CC(C)n1cnc2cc(-c3ccc4c(c3)N([C@H]3C[C@@H](N5CCCCC5)C3)C(=O)C43CCN(C(=O)C4(C)CCN(C(=O)[C@H]5CC[C@H](Oc6ccc(N7CCC(=O)NC7=O)cn6)CC5)CC4)CC3)nc(Nc3ccccc3F)c21 [Example 108, 1-(6-{[(1R,4R)-4-{4-[(6-{4-[(2-fluorophenyl)amino]-3-(propan-2-yl)-3H-imidazo[4,5-c]pyridin-6-yl}-2-oxo-1-[(1S,3S)-3-(piperidin-1-yl)cyclobutyl]-1,2-dihydrospiro[indole-3,4′-piperidin]-1′-yl)carbonyl]-4-methylpiperidine-1-carbonyl}cyclohexyl]oxy}pyridin-3-yl)-1,3-diazinane-2,4-dione]
11 | 100 to 500 | 50 to 70 | CC(C)n1cnc2cc(-c3ccc4c(c3)N([C@H]3C[C@@H](N5CCCCC5)C3)C(=O)C43CCN(C(=O)C[C@@H]4CCCN(C(=O)C5CCN(c6ccc(C7CCC(=O)NC7=O)cn6)CC5)C4)CC3)nc(NC3CC3)c21 (mixture of isomers) [Example 298, (3RS)-3-(6-{4-[(3S)-3-(2-{6-[4-(cyclopropylamino)-3-(propan-2-yl)-3H-imidazo[4,5-c]pyridin-6-yl]-2-oxo-1-[(1S,3S)-3-(piperidin-1-yl)cyclobutyl]-1,2-dihydrospiro[indole-3,4′-piperidin]-1′-yl}-2-oxoethyl)piperidine-1-carbonyl]piperidin-1-yl}pyridin-3-yl)piperidine-2,6-dione]
12 | < 100 | 50 to 70 | CC(C)n1cnc2cc(-c3ccc4c(c3)N([C@H]3C[C@@H](N5CCCCC5)C3)C(=O)C43CCN(C(=O)[C@]45C[C@H]4CN(C(=O)C4CCN(c6ccc(C7CCC(=O)NC7=O)cc6)CC4)C5)CC3)nc(NC3CC3)c21 (mixture of isomers) [Example 263, (3RS)-3-(4-{4-[(1R,5R)-1-({6-[4-(cyclopropylamino)-3-(propan-2-yl)-3H-imidazo[4,5-c]pyridin-6-yl]-2-oxo-1-[(1S,3S)-3-(piperidin-1-yl)cyclobutyl]-1,2-dihydrospiro[indole-3,4′-piperidin]-1′-yl}carbonyl)-3-azabicyclo[3.1.0]hexane-3-carbonyl]piperidin-1-yl}phenyl)piperidine-2,6-dione]
13 | 100 to 500 | 50 to 70 | CC(C)n1cnc2cc(-c3ccc4c(c3)N([C@H]3C[C@@H](N5CCCCC5)C3)C(=O)C43CCN(C(=O)[C@H]4CCN(C(=O)C5CCN(c6ccc(C7CCC(=O)NC7=O)cn6)CC5)C4)CC3)nc(Nc3ccncc3F)c21 (mixture of isomers) [Example 34, (3RS)-3-(6-{4-[(3S)-3-[(6-{4-[(3-fluoropyridin-4-yl)amino]-3-(propan-2-yl)-3H-imidazo[4,5-c]pyridin-6-yl}-2-oxo-1-[(1S,3S)-3-(piperidin-1-yl)cyclobutyl]-1,2-dihydrospiro[indole-3,4′-piperidin]-1′-yl)carbonyl]pyrrolidine-1-carbonyl]piperidin-1-yl}pyridin-3-yl)piperidine-2,6-dione]
